The test concerns the target T1, β-Galactosidase from Aspergillus oryzae (Aspergillus oryzae, UniProt Q2UCU3).
T1 construct: gene lacA; commercial secreted enzyme (Sigma-Aldrich), no catalogue number
T1 sequence (Q2UCU3 19-1005): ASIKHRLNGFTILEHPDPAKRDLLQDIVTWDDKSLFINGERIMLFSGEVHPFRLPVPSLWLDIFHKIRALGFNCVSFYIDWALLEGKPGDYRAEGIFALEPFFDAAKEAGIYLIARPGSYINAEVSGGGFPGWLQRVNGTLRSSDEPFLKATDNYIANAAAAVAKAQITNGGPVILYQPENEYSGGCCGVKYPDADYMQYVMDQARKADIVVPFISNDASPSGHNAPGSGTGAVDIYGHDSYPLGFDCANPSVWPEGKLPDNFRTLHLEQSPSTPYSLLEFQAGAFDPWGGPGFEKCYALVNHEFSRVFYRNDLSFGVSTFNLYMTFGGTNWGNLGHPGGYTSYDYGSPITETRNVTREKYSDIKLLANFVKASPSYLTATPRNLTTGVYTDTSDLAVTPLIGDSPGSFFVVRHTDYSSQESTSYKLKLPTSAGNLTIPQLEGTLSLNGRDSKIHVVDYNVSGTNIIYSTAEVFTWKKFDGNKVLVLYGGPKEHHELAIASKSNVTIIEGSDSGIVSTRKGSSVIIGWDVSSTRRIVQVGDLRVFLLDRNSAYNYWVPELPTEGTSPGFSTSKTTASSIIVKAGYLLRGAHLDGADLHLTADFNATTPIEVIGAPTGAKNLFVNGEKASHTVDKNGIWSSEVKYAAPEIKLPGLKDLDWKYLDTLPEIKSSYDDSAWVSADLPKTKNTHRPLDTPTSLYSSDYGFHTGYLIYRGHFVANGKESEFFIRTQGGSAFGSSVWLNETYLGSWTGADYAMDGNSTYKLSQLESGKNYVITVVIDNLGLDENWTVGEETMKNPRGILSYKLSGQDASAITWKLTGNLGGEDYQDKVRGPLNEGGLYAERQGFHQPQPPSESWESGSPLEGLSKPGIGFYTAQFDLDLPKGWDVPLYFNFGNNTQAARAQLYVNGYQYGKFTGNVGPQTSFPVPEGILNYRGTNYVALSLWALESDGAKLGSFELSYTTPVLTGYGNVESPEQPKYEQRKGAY
Briefly: 2-nitrophenyl beta-D-galactopyranoside hydrolysis, absorbance […] nm. It counts as biochemical. As to conditions: read-out: β-Galactosidase inhibition / IC50 (mg/mL) (converted).

With `O=c1c(O)c(-c2ccc(O)c(O)c2)oc2cc(O)cc(O)c12` [Quercetin], the IC50 is 817 µM.

Source of the values: article PMC6466937, “Evaluation of In Vitro Antioxidant and Antidiabetic Activities of Aristolochia longa Extracts” (Evidence-based Complementary and Alternative Medicine : eCAM, 2019).
